# Tests used:
# [1] = Metal ion sensing: fluorescence titration and selectivity experiments; assay type: physicochemical; details: for fluorescence at 580 nm upon addition of Sn^2+ / selectivity: metal ions that turn on fluorescence / fluorescence of probe solution without metal ion: 20 μM in ethanol-water (1:1, v/v, pH 7.04); for fluorescence at 580 nm upon addition of Sn^2+: Sn^2+ 0-20 eq; for fluorescence at 580 nm upon addition of Sn^2+ / selectivity: metal ions that turn on fluorescence / fluorescence enhancement with other transition and heavy metal ions: excitation 560 nm; for fluorescence of probe solution without metal ion: no Sn^2+; for fluorescence enhancement with other transition and heavy metal ions: K^+, Ag^+, Ca^2+, Mg^2+, Zn^2+, Pb^2+, Ni^2+, Mn^2+, Co^2+, Cd^2+, Hg^2+, 20 μM probe
# Protocol: The procedure for metal ion sensing is described. Solutions of the metal ions (10.0 mM) are prepared in deionized water. […] Sn^2+ stock solution is added into the quartz optical cell gradually by micro-pipette. Spectral data is recorded at 5 min after addition. […] For fluorescence measurements, excitation is provided at 560 nm, while emission is collected from 565 to 700 nm. Metal ion response is described. Fluorescent ‘turn on’ probe is conducive for detection target. […] High-level selectivity is of paramount importance for an excellent chemosensor. […] Metal ion response of R1 and R2 are suited for detection of Sn^2+ in living Streptococcus mutans cells.
# [2] = tested on: lysosomes of KB cells; test: Colocalization experiment with LysoTracker Green DND in KB cells; assay type: cell-based; details: 50 μM Sn^2+, 10 μM probe, 1 μM LysoTracker Green DND, 30 min each
# Protocol: Colocalization experiments are described. 50 μM SnF2 in the culture media is added to the cells. The cells are incubated at 37° C. for 30 min, and washed with PBS three times to remove the excess SnF2. After washing with PBS (2 mL×3) to remove the excess SnF2, the cells are treated with 10 μM of Compound R1 or R2 separately for 30 min, and washed with PBS three times to remove the excess probe and bathed in PBS (2 mL) before imaging. Cell imaging is then carried out as the former. After washing with PBS (2 mL×3) to remove the excess probes, the cells were treated with 1.0 μM LysoTracker® Green DND at 37° C. for 30 min. Cell imaging is then carried out as the former.
# Firstly, the KB cells are stained with 50 μM Sn^2+ at 37° C. for 30 min, and then separately incubated with 10 μM of Compound R1 and 1 μM LysoTracker® Green DND or Compound R2 and 1 μM LysoTracker® Green DND under the same conditions. […] There is no fluorescence in other intracellular sites. […] This may be a transmission path of Sn. […] Many pharmaceutical agents, including various large and small molecules, must be delivered specifically to particular cell organelles in order to efficiently exert their therapeutic action. Such delivery is still mainly an unresolved problem, but targeting detection is helpful attempt. […]
# [3] = pH titration of fluorescence; assay type: physicochemical; details: 10 μM in PBS, emission 580 nm, excitation 560 nm
# Protocol: pH titration of Compounds R1 and R2 is described. Stock solutions of Compounds R1 and R2 are respectively added to sodium phosphate buffers of various pH to a final concentration of 10 μM. The fluorescence emission spectra are recorded as a function of pH using λex at 560 nm. The titration curves are plotted by fluorescence emission intensities at 580 nm versus pH.
# The impact of pH values on fluorescence is described. The pirolactam ring of the rhodamine derivatives will open in a certain pH range and indicates the fluorescence of rhodamine. It is therefore necessary to check the fluorescence properties of Compounds R1 and R2 in solutions with different pH values. Furthermore, in the cell, the acidity of different organelles may vary greatly. For example, the normal pH of lysosomes is 4.5-5.5, which may induce ring opening of R1 or R2. Considering the application of Sn^2+ probe R1 and R2 intracellular or extracellular may be disturbed by the pH, the acid-base titration experiments are carried out by adjusting the pH with an aqueous solution of NaOH and HCl in Phosphate-Buffered Saline (“PBS”) (FIG. 2 a and b). […] It is predicted that R1 will be turned on by lysosomes in cell without Sn^2+ present. FIGS. 2a and 2b show the dependence of fluorescence at 580 nm of comparative Compound R1 and inventive Compound R2 (10 μM) at different pH in PBS solution. Excitation was at 560 nm.
# [4] = tested on: Streptococcus mutans (ATCC® 700610™); test: Fluorescence imaging of Sn^2+ in bacteria (confocal); assay type: cell-based; details: for fluorescence change in Streptococcus mutans after incubation with Sn^2+: 10 μM probe 60 min at 37° C., then 50 μM Sn^2+; for fluorescence in Streptococcus mutans without Sn^2+ present: 10 μM probe, 37° C., 60 min, no Sn^2+
# Protocol: Cell culture preparation is described. The KB cell line was provided by of Biochemistry and Cell Biology (China). Cells are grown in MEM (Modified Eagle's Medium) supplemented with 10% FBS (Fetal Bovine serum) and 5% CO2 at 37° C. Cell ([…]) are plated on […] glass coverslips and allowed to adhere for 24 hours. The Streptococcus mutans (ATCC® 700610™) is prepared by inoculating the single colony from the BHI (Brain-Heart Infusion) agar plate into 5 mL BHI broth and incubating at 37° C. for 48 h.
# For fluorescence imaging of Sn^2+ in bacteria is described. Freshly diluted Streptococcus mutans (ATCC® 700610™) is sub cultured in the presence of the 10 μM Compound R1 or R2, separately at 37° C. on a shaker bed at 400 rpm for 60 min. Then the bacteria are collected by centrifugation at 8,000 rpm for 2 min and rinsed with Saline (pH=7.0). The process is repeated three times before imaging. After washing with Saline (2 mL×3) to remove the excess probes, the bacteria is cultured in the presence of the 50 μM SnF2 at 37° C. on a shaker bed at 400 rpm for 60 min. Then the bacteria are collected by centrifugation at 8,000 rpm for 2 min and rinsed with Saline (pH=7.0). The process was repeated three times before imaging. The light source is at =543 nm provided excitation and emission are collected in the range=560-660 nm.
# Turning to FIGS. 5a and 5b, fluorescence imaging of Sn^2+ in bacteria is described. FIGS. 5a and 5b show simplified illustrations derived based upon CLSM. The illustrations are not drawn to scale but rather enlarged for illustrative purposes. It has been reported that Sn^2+ can inhibit metabolism of Streptococcus mutans. The practical applicability of Compounds R1 and R2 as a Sn^2+ probe in the fluorescence imaging of living Streptococcus mutans (ATCC® 700610™) are investigated. Firstly, the Streptococcus mutans (ATCC® 700610™) are separately stained with 10 μM Compound R1 or R2 at 37° C. for 60 min.
# FIGS. 5a and 5b show simplified illustrations derived based upon CLSM images of Streptococcus mutans (ATCC® 700610™). The illustrations are not drawn to scale but rather enlarged for illustrative purposes. (a1-c1) and (a2-c2) Cells are separately incubated with 10 μM comparative Compound R1 and inventive Compound R2 for 30 min, (d1-f1) and (d2-f2) followed incubated with 50 μM SnF2 for 30 min. Emission is collected in red channel at 560-660 nm (b1, e1, b2, e2); a1, d1, a2, d2 are bright field images and c1, f1, c2, f2 are overlay images, respectively (λex=543 nm).
Molecule,fluorescence at 580 nm upon addition of Sn^2+ [1],selectivity: metal ions that turn on fluorescence [1],fluorescence of probe solution without metal ion [1],fluorescence enhancement with other transition and heavy metal ions [1],colocalization of probe fluorescence with LysoTracker Green DND [2],pH range for inducing fluorescence turning on [3],fluorescence change in Streptococcus mutans after incubation with Sn^2+ [4],fluorescence in Streptococcus mutans without Sn^2+ present [4]
CCN(CC)c1ccc2c(c1)Oc1cc(N(CC)CC)ccc1C21c2ccccc2C(=O)N1NC(=O)OC(C)(C)C [Compound R2],turned on and grown drastically,tuning on just in the presence of Sn^2+ and Cr^3+,non-fluorescent,minimal enhancement,overlap with LysoTracker® Green DND very well,2-4.5 pH,significant fluorescence increasing,no fluorescence emission
"Spiro[1H-isoindole-1,9′-[9H]xanthen]-3(2H)-one, 2-[2-[bis(2-hydroxyethyl)amino]amino]ethyl]-3′,6′-bis(diethylamino) [Compound R1]",turned on and grown drastically,tuning on just in the presence of Sn^2+ and Cr^3+,non-fluorescent,minimal enhancement,overlap with LysoTracker® Green DND very well,2.5-6 pH,significant fluorescence increasing,no fluorescence emission

# From US20180072944A1, “Stannous Fluorescent Probe” (priority 2016, published 2018)
